Data on 21 compounds can be found in patent publication US9527856B2, “Oxindole compounds carrying a CO-bound spiro substituent and use thereof for treating vasopressin-related diseases” (AbbVie Deutschland GmbH & Co. KG, priority 2014, dated 2016).

Assay [1] concerns the target T1, human vasopressin V1b receptor (Homo sapiens, UniProt P47901).
T1 sequence (P47901 1-424): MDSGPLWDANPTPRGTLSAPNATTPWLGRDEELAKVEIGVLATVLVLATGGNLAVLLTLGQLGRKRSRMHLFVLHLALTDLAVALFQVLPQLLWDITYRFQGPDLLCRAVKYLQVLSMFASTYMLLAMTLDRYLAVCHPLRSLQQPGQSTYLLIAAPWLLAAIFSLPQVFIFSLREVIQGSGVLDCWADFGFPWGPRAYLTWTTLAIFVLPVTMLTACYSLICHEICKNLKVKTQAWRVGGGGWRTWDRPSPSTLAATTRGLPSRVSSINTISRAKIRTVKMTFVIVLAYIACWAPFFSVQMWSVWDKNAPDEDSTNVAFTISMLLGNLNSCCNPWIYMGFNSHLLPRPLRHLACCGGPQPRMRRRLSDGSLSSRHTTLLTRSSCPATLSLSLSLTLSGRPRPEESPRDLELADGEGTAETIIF
The experiment in a line: biochemical. Particulars: Ki(h-V1b)* [nM], CHO-K1 cell membranes, displacement of 3H-AVP.

Assay [2] addresses human vasopressin V1a receptor (Homo sapiens, UniProt P37288). As to the kind of experiment: Vasopressin V1a receptor binding assay. Particulars: selectivity for human V1b over human V1a, quotient of binding constants.

Structures are written as SMILES.

Chain of human vasopressin V1a receptor (P37288 whole entry): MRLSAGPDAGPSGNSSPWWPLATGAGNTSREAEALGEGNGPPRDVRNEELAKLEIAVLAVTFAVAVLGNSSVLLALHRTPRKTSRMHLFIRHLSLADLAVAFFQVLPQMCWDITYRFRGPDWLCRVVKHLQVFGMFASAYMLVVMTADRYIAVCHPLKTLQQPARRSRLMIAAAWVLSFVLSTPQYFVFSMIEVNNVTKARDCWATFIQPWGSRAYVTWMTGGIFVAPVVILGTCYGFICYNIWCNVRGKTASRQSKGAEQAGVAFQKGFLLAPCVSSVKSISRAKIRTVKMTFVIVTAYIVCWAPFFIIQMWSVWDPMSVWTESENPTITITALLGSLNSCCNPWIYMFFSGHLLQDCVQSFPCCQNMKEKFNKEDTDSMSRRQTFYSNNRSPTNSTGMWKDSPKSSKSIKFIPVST

On to `CCOc1ncccc1C1(CC(=O)N2CC3(CN(CCN4CCOCC4)C3)C2)C(=O)N(S(=O)(=O)c2ccc(OC)cc2)c2ccc(C#N)cc21` (racemic) [Example 20, 3-(2-Ethoxy-3-pyridyl)-1-(4-methoxyphenyl)sulfonyl-3-[2-[2-(2-morpholinoethyl)-2,6-diazaspiro[3.3]heptan-6-yl]-2-oxo-ethyl]-2-oxo-indoline-5-carbonitrile], for which the Ki in assay [1] was 1 to 10 nM. The “Ki(h-V1a)/Ki(h-V1b)” value in assay [2] was “++ (25-75)”.

In turn, `CCOc1ncccc1C1(NC(=O)N2CC3(C2)CN(C2CCN(C(C)C)CC2)C3)C(=O)N(S(=O)(=O)c2ccc(OC)cc2OC)c2ccc(C#N)cc21` (racemic) [Example 22, (±)-N-[5-Cyano-1-(2,4-dimethoxyphenyl)sulfonyl-3-(2-ethoxy-3-pyridyl)-2-oxo-indolin-3-yl]-2-(1-isopropyl-4-piperidyl)-2,6-diazaspiro[3.3]heptane-6-carboxamide] displayed a Ki in assay [1] of 1 to 10 nM. In addition, the “Ki(h-V1a)/Ki(h-V1b)” value in assay [2] is reported as “+++ (>75)”.

With `CCOc1ncccc1C1(CC(=O)N2CC3(CN(CCN4CCOCC4)C3)C2)C(=O)N(S(=O)(=O)c2ccc(OC)cc2)c2ccc(C#N)cc21` (single isomer, unassigned) [Example 20A, 3-(2-Ethoxy-3-pyridyl)-1-(4-methoxyphenyl)sulfonyl-3-[2-[2-(2-morpholinoethyl)-2,6-diazaspiro[3.3]heptan-6-yl]-2-oxo-ethyl]-2-oxo-indoline-5-carbonitrile], the Ki in assay [1] lay within 1 to 10 nM. Further, the “Ki(h-V1a)/Ki(h-V1b)” value in assay [2] was “++ (25-75)”.

In assay [1], `CCOc1ncccc1[C@]1(NC(=O)N2CC3(CN(CCN4CCOCC4)C3)C2)C(=O)N(S(=O)(=O)c2ccc(OC)cc2)c2ccc(C#N)cc21` [Example 1, N-[(3S)-5-Cyano-3-(2-ethoxy-3-pyridyl)-1-(4-methoxyphenyl)sulfonyl-2-oxo-indolin-3-yl]-2-(2-morpholinoethyl)-2,6-diazaspiro[3.3]heptane-6-carboxamide] had an inhibition constant Ki of 1 to 10 nM. Moreover, the “Ki(h-V1a)/Ki(h-V1b)” value in assay [2] is “+++ (>75)”.

Regarding `CCOc1ncccc1[C@]1(NC(=O)N2CC3(CN(CCN4CCOCC4)C3)C2)C(=O)N(S(=O)(=O)c2ccc(OC)cc2)c2ccc(C#N)cc21.O=C(O)C(F)(F)F` [Example 1B, N-[(3S)-5-cyano-3-(2-ethoxy-3-pyridyl)-1-(4-methoxyphenyl)sulfonyl-2-oxo-indolin-3-yl]-2-(2-morpholinoethyl)-2,6-diazaspiro[3.3]heptane-6-carboxamide; 2,2,2-trifluoroacetic acid], the inhibition constant Ki in assay [1] was less than 1 nM. Further, in assay [2], the “Ki(h-V1a)/Ki(h-V1b)” value was “+++ (>75)”.

Regarding `CCOc1ncccc1[C@]1(NC(=O)N2CC3(CN(CCCN4CCOCC4)C3)C2)C(=O)N(S(=O)(=O)c2ccc(OC)cc2)c2ccc(C#N)cc21` [Example 2, N-[(3S)-5-Cyano-3-(2-ethoxy-3-pyridyl)-1-(4-methoxyphenyl)sulfonyl-2-oxo-indolin-3-yl]-2-(3-morpholinopropyl)-2,6-diazaspiro[3.3]heptane-6-carboxamide], the Ki in assay [1] was in the range of 10 to 100 nM. For the same compound, in assay [2], the “Ki(h-V1a)/Ki(h-V1b)” value was “+++ (>75)”.

`CCOc1ncccc1[C@]1(NC(=O)N2CC3(CN(CCN4CCOCC4)C3)C2)C(=O)N(S(=O)(=O)c2ccc(OC)cn2)c2ccc(C#N)cc21` [Example 4, N-[(3S)-5-Cyano-3-(2-ethoxy-3-pyridyl)-1-[(5-methoxy-2-pyridyl)sulfonyl]-2-oxo-indolin-3-yl]-2-(2-morpholinoethyl)-2,6-diazaspiro[3.3]heptane-6-carboxamide]: in assay [1], the Ki is 1 to 10 nM. Besides, the “Ki(h-V1a)/Ki(h-V1b)” value in assay [2] is reported as “+++ (>75)”.

`CCOc1ncccc1[C@]1(NC(=O)N2CC3(CN(CCN4CCOCC4)C3)C2)C(=O)N(S(=O)(=O)c2ccc(C#N)cc2)c2ccc(C#N)cc21` [Example 5, N-[(3S)-5-cyano-1-(4-cyanophenyl)sulfonyl-3-(2-ethoxy-3-pyridyl)-2-oxo-indolin-3-yl]-2-(2-morpholinoethyl)-2,6-diazaspiro[3.3]heptane-6-carboxamide] returned a Ki in assay [1] of 10 to 100 nM. Further, the “Ki(h-V1a)/Ki(h-V1b)” value in assay [2] is given as “+++ (>75)”.

Consider `CCOc1ncccc1[C@]1(NC(=O)N2CC3(CN(CCN4CCOCC4)C3)C2)C(=O)N(S(=O)(=O)c2ccc(C)cc2)c2ccc(C#N)cc21` [Example 16, N-[(3S)-5-Cyano-3-(2-ethoxy-3-pyridyl)-2-oxo-1-(p-tolylsulfonyl)indolin-3-yl]-2-(2-morpholinoethyl)-2,6-diazaspiro[3.3]heptane-6-carboxamide], for which, in assay [2], the “Ki(h-V1a)/Ki(h-V1b)” value is on record as “++ (25-75)”.

`CCOc1ncccc1[C@]1(NC(=O)N2CC3(C2)CN(C2COC2)C3)C(=O)N(S(=O)(=O)c2ccc(F)cc2)c2ccc(C#N)cc21` [Example 31, N-[(3S)-5-Cyano-3-(2-ethoxy-3-pyridyl)-1-(4-fluorophenyl)sulfonyl-2-oxo-indolin-3-yl]-2-(oxetan-3-yl)-2,6-diazaspiro[3.3]heptane-6-carboxamide] registered a Ki in assay [1] of 10 to 100 nM.

In the case of `CCOc1ncccc1[C@]1(NC(=O)C2CC3(CNC3)C2)C(=O)N(S(=O)(=O)c2ccc(OC)cc2)c2ccc(C#N)cc21` [Example 44, N-[(3S)-5-Cyano-3-(2-ethoxy-3-pyridyl)-1-(4-methoxyphenyl)sulfonyl-2-oxo-indolin-3-yl]-6-azaspiro[3.3]heptane-2-carboxamide], the Ki in assay [1] was 10 to 100 nM.

`CCOc1ncccc1C1(NC(=O)C2CCC3(CC2)CCN(C2CCNCC2)CC3)C(=O)N(S(=O)(=O)c2ccc(OC)cc2OC)c2ccc(C#N)cc21` (centres unmarked) [Example 47, N-(5-Cyano-1-(2,4-dimethoxyphenylsulfonyl)-3-(2-ethoxypyridin-3-yl)-2-oxoindolin-3-yl)-3-(piperidin-4-yl)-3-azaspiro[5.5]undecane-9-carboxamide 2,2,2-trifluoroacetate] showed a Ki in assay [1] of 1 to 10 nM.

Consider `CCOc1ncccc1C1(NC(=O)C2CC3(C2)CC(N2CC4(CNC4)C2)C3)C(=O)N(S(=O)(=O)c2ccc(OC)cc2OC)c2ccc(C#N)cc21` (centres unmarked) [Example 48, N-(5-Cyano-1-(2,4-dimethoxyphenylsulfonyl)-3-(2-ethoxypyridin-3-yl)-2-oxoindolin-3-yl)-6-(2,6-diazaspiro[3.3]heptan-2-yl)spiro[3.3]heptane-2-carboxamide 2,2,2-trifluoroacetate], for which the Ki in assay [1] was 1 to 10 nM.

In turn, `CCOc1ncccc1C1(NC(=O)N2CCC3(CC2)CN(C2CCNCC2)C3)C(=O)N(S(=O)(=O)c2ccc(OC)cc2OC)c2ccc(C#N)cc21` (centres unmarked) [Example 50, N-(5-Cyano-1-(2,4-dimethoxyphenylsulfonyl)-3-(2-ethoxypyridin-3-yl)-2-oxoindolin-3-yl)-2-(piperidin-4-yl)-2,7-diazaspiro[3.5]nonane-7-carboxamide bis-2,2,2-trifluoroacetate] yielded an inhibition constant Ki in assay [1] of 10 to 100 nM.

Take `CCOc1ncccc1C1(NC(=O)N2CCC3(CC2)CNC3)C(=O)N(S(=O)(=O)c2ccc(OC)cc2OC)c2ccc(C#N)cc21` (centres unmarked) [Example 51, N-(5-Cyano-1-(2,4-dimethoxyphenylsulfonyl)-3-(2-ethoxypyridin-3-yl)-2-oxoindolin-3-yl)-2,7-diazaspiro[3.5]nonane-7-carboxamide 2,2,2-trifluoroacetate]: in assay [1], the Ki was in the range of 10 to 100 nM.

As to `CCOc1ncccc1C1(NC(=O)C2CCC3(CCNCC3)CC2)C(=O)N(S(=O)(=O)c2ccc(OC)cc2OC)c2ccc(C#N)cc21` (centres unmarked) [Example 52, N-(5-Cyano-1-(2,4-dimethoxyphenylsulfonyl)-3-(2-ethoxypyridin-3-yl)-2-oxoindolin-3-yl)-3-azaspiro[5.5]undecane-9-carboxamide 2,2,2-trifluoroacetate], the inhibition constant Ki in assay [1] fell in the range of 1 to 10 nM.

Compound `CCOc1ncccc1C1(NC(=O)N2CCC3(CCN(C)CC3)CC2)C(=O)N(S(=O)(=O)c2ccc(OC)cc2OC)c2ccc(C#N)cc21` (centres unmarked) [Example 53, N-(5-Cyano-1-(2,4-dimethoxyphenylsulfonyl)-3-(2-ethoxypyridin-3-yl)-2-oxoindolin-3-yl)-9-methyl-3,9-diazaspiro[5.5]undecane-3-carboxamide 2,2,2-trifluoroacetate] had a Ki in assay [1] of 10 to 100 nM.

For the compound `CCOc1ncccc1C1(NC(=O)C2CC3(C2)CC(N2CCN(CC)CC2)C3)C(=O)N(S(=O)(=O)c2ccc(OC)cc2OC)c2ccc(C#N)cc21` (centres unmarked) [Example 54, N-(5-Cyano-1-(2,4-dimethoxyphenylsulfonyl)-3-(2-ethoxypyridin-3-yl)-2-oxoindolin-3-yl)-6-(4-ethylpiperazin-1-yl)spiro[3.3]heptane-2-carboxamide 2,2,2-trifluoroacetate], in assay [1], the Ki is less than 1 nM.

As for `CCOc1ncccc1C1(NC(=O)N2CC3(CCN(C)CC3)C2)C(=O)N(S(=O)(=O)c2ccc(OC)cc2OC)c2ccc(C#N)cc21` (centres unmarked) [Example 55, N-(5-Cyano-1-(2,4-dimethoxyphenylsulfonyl)-3-(2-ethoxypyridin-3-yl)-2-oxoindolin-3-yl)-7-methyl-2,7-diazaspiro[3.5]nonane-2-carboxamide 2,2,2-trifluoroacetate], the inhibitory constant (Ki) in assay [1] was in the range of 10 to 100 nM.

In assay [1], `CCOc1ncccc1C1(NC(=O)N2CCC3(CCN(CC)CC3)CC2)C(=O)N(S(=O)(=O)c2ccc(OC)cc2OC)c2ccc(C#N)cc21` (centres unmarked) [Example 56, N-(5-Cyano-1-(2,4-dimethoxyphenylsulfonyl)-3-(2-ethoxypyridin-3-yl)-2-oxoindolin-3-yl)-9-ethyl-3,9-diazaspiro[5.5]undecane-3-carboxamide 2,2,2-trifluoroacetate] registered an inhibition constant Ki of 10 to 100 nM.

In assay [1], `CCOc1ncccc1C1(NC(=O)C2CC3(CNC3)C2)C(=O)N(S(=O)(=O)c2ccc(OC)cc2OC)c2ccc(C#N)cc21` (centres unmarked) [Example 57, N-(5-Cyano-1-(2,4-dimethoxyphenylsulfonyl)-3-(2-ethoxypyridin-3-yl)-2-oxoindolin-3-yl)-2-azaspiro[3.3]heptane-6-carboxamide 2,2,2-trifluoroacetate] displayed an inhibitory constant (Ki) of 10 to 100 nM.
